The values that follow are results of earlier work, collected in patent publication US20230174569A1, “PROCESS PER PREPARING (3a,5a)-20-OXOPREGNAN-3-YL GLYCYL-L-VALINATE HYDROCHLORIDE” ([…] S.R.L., priority 2021, published 2023).

Where a name gives a salt, the structure may show the parent alone.

The conditions of data set [1]: compared with Brexanolone.
For data set [2] the following is noted: compared with Brexanolone. This is another data set of the same source.

Consider `CC(=O)[C@H]1CC[C@H]2[C@@H]3CC[C@H]4C[C@H](OC(=O)[C@@H](NC(=O)CN)C(C)C)CC[C@]4(C)[C@H]3CC[C@]12C` [compound I, (3α,5α)-20-oxopregnan-3-yl glycyl-L-valinate hydrochloride], for which, in data set [1], the water solubility entry is “better profile than Brexanolone”. Besides, the “storage stability in aqueous solutions” value in data set [2] is listed as “better profile than Brexanolone”.
